“Also recorded” adds a separate entry of the source.

The target of one assay is T1, LYPLA1 (Mus musculus, UniProt P97823).
T1 construct: a complex proteome endogenously expressing LYPLA1/2 was incubated with test compound; from tissue; host or cells: mouse brain, membrane fraction
The assay can be described thus: Gel-based competitive ABPP in vitro, mouse brain membrane proteome. It is filed as biochemical. Particulars: 30 min, one replicate; for inhibition at 0.1 µM: 0.1 μM compound, read-out: LYPLA1 % INH 0.1 μM; for inhibition at 1 µM: 1 μM compound, read-out: LYPLA1 % INH 1 μM; for inhibition at 10 µM: 10 μM compound, read-out: LYPLA1 % INH 10 μM; for inhibition at 100 µM: 100 μM compound, read-out: LYPLA1 % INH 100 μM. On the procedure: (§1) Assay Overview: The purpose of this assay was to determine whether test compounds can inhibit LYPLA1 and LYPLA2 in a complex proteomic lysate and to assess anti-target inhibition using a competitive activity-based proteomic profiling (ABPP) assay. In this assay, a complex proteome endogenously expressing LYPLA1/2 was incubated with test compound followed by reaction with a rhodamine-conjugated fluorophosphonate (FP-Rh) serine-hydrolase specific activity-based probe. The reaction products were separated by SDS-PAGE and visualized in-gel using a flatbed fluorescence scanner. The percentage activity remaining was determined by measuring the integrated optical density of the bands. […] Percent inhibition was calculated relative to a DMSO (no compound) control.
(§2) Protocol Summary: Mouse brain membrane proteome (50 μL reaction volume, 1 mg/mL in DPBS) was treated with 0.1-100 μM test compound (1 μL of a 50× stock in DMSO) for 30 minutes at 37° C. FP-Rh (1 μL of 50× stock in DMSO, Thermo #88318) was added to a final concentration of 2 μM. The reactions were incubated for 30 minutes at 25° C., quenched with 16 μL 4×SDS-PAGE loading buffer (reducing), separated by SDS-PAGE and visualized by in-gel fluorescent scanning. The percentage activity remaining was determined by measuring the integrated optical density of the bands relative to a DMSO-only (no compound) control. Assay Cutoff: Compounds with ≥50% inhibition of targets at 1 μM test compound concentration were considered active.
(§3) N-Hydroxy bicyclic hydantoin carbamates (Compounds 1-20) listed in Table 1 were subjected to gel-based competitive ABPP screening to assess SH reactivity against more than 20 FP-sensitive SHs visible by 1D SDS-PAGE separation and fluorescent detection in the mouse brain proteome (see FIG. 1). […] Compound treatment ([…], 30 minutes) was followed by labeling with SH-specific ABPP probe FP-Rh (2 μM, 30 minutes), 1D-SDS-PAGE, and in-gel fluorescent visualization of FP-labeled proteins. Assignment of LYPLA1/2 bands was based on correlation of molecular weights, expression and inhibition profiles with LC-MS/MS data and recombinant enzyme expression. Proteins were listed as anti-targets if at least 50% inhibition was observed as quantified relative to the DMSO control.
(§4) Compounds 1-20 were subjected to gel-based competitive ABPP profiling to assess potency and selectivity against several dozen FP-sensitive SHs in the mouse brain membrane proteome, which endogenously expresses LYPLA1 and LYPLA2, as well a diversity of potential SH anti-targets. Compounds were tested at 100 μM, 10 μM, 1 μM, and/or 0.1 μM compound concentration.

The next assay has as its target T2, LYPLA2 (Mus musculus, UniProt Q9WTL7).
T2 construct: a complex proteome endogenously expressing LYPLA1/2 was incubated with test compound; from tissue; host or cells: mouse brain, membrane fraction
The description is as above. The assay is classed as biochemical. As to conditions: 30 min, one replicate; for inhibition at 0.1 µM: 0.1 μM compound, read-out: LYPLA2 % INH 0.1 μM; for inhibition at 1 µM: 1 μM compound, read-out: LYPLA2 % INH 1 μM; for inhibition at 10 µM: 10 μM compound, read-out: LYPLA2 % INH 10 μM; for inhibition at 100 µM: 100 μM compound, read-out: LYPLA2 % INH 100 μM. On the procedure: as §1, §2, §3, §4

In assay [1] the test system is FP-sensitive SHs in the mouse brain membrane proteome. The assay can be described thus: Gel-based competitive ABPP in vitro, mouse brain membrane proteome, anti-targets. The assay is classed as biochemical. As to conditions: for Anti-target(s) 0.1 μM: SHs with at least 50% inhibition at 0.1 μM compound; for Anti-target(s) 1 μM: SHs with at least 50% inhibition at 1 μM compound; for Anti-target(s) 10 μM: SHs with at least 50% inhibition at 10 μM compound; for Anti-target(s) 100 μM: SHs with at least 50% inhibition at 100 μM compound. On the procedure:
as §1, §2, §3, §4

Another assay concerns the target T3, human LYPLA1 (Homo sapiens, UniProt O75608).
T3 construct: endogenous human LYPLA1/2 in a HeLa soluble proteome; endogenous in cells; host or cells: HeLa (soluble proteome in vitro; cultured cells in situ)
The assay can be described thus: IC50 by gel-based competitive ABPP in vitro, soluble HeLa cell proteome. The assay is classed as biochemical. Particulars: human LYPLA isoform, three replicates; Table 2 prints no unit, nM; read-out: LYPLA1 IC50. On the procedure: (§5) Assay Overview: The purpose of this assay was to determine IC50 values of powder samples of test compounds for enzyme of interest activity, and anti-targets in a complex proteomic lysate using a gel-based competitive ABPP assay. In this assay, a complex proteome was incubated with test compound followed by reaction with FP-Rh and SDS-PAGE analysis as described above.
(§6) Protocol Summary: Soluble HeLa cell proteome (50 μL reaction volume, 1 mg/mL in DPBS) or mouse brain membrane proteome (50 μL reaction volume, 1 mg/mL in DPBS) was treated with varying concentrations of test compound (1 μL of a 50× stock in DMSO) for 30 minutes at 37° C. FP-Rh (1 μL of 50× stock in DMSO) was added to a final concentration of 2 μM. The reaction was incubated for 30 minutes at 25° C., quenched with 16 μL 4×SDS-PAGE loading buffer (reducing), separated by SDS-PAGE and visualized by in-gel fluorescent scanning. The percentage activity remaining was determined by measuring the integrated optical density of the enzymes of interest, and anti-target bands relative to a DMSO-only (no compound) control. IC50 values were determined from dose-response curves from three replicates at each inhibitor concentration: 1, 10, 100, 1000, 10000 nM and 0.01, 0.1, 1, 10, 100, 1000, 10000, 50000, and 100000 nM.

The next assay deals with T4, human LYPLA2 (Homo sapiens, UniProt O95372).
T4 construct: endogenous human LYPLA1/2 in a HeLa soluble proteome; endogenous in cells; host or cells: HeLa (soluble proteome in vitro; cultured cells in situ)
T4 sequence (O95372 whole entry): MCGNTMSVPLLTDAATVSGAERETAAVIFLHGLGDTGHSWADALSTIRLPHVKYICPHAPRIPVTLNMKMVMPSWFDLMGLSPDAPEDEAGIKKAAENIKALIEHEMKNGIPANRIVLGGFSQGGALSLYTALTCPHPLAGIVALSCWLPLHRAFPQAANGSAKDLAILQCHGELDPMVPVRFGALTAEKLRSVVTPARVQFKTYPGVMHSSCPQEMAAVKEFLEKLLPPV
Described as above. It is filed as biochemical. As to conditions: human LYPLA isoform, three replicates; Table 2 prints no unit, nM; read-out: LYPLA2 IC50. On the procedure:
as §5, §6

In the next assay the target is T5, PPT1 (Homo sapiens, UniProt P50897).
T5 sequence (P50897 28-306): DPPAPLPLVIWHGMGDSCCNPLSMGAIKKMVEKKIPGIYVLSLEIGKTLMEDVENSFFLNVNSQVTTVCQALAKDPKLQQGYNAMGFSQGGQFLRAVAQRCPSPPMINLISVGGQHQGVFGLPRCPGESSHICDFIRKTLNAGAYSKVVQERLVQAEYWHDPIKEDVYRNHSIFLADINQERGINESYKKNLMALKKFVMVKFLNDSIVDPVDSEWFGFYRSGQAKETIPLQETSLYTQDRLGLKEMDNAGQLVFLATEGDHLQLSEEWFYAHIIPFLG
The assay can be described thus: In situ inhibition of hPPT1 in transfected HEK293T cells, competitive ABPP with Compound 39 probe. The assay is classed as cell-based. Details: expressed in transfected cells; host or cells: HEK293T. As to conditions: 2 μM, hPPT1-transfected HEK293T cells, in situ. As for the experimental part:
(§7) HEK293T cells were seeded at 2×10^5 per well on 6 well plates and grown for 48 h. They were then transfected with mABHD3 (pCMV-Sport6), hABHD4 (pcDNA3.1/myc-his), hPPT1 (pCMV6-XL5), or hPPT1 S115A (pCMV6-XL5), by incubating 0.5 μg of DNA with 3 μL of PEI MAX (1 mg/mL, Polysciences, Inc) in serum-free DMEM for 30 min, then adding them to cells. After 48 h cells were either treated with compound in situ, as described above, or harvested for in vitro studies. The […] PPT1 mutation was introduced using QuikChange II Site Directed Mutagenesis Kit (Agilent) with the following primers: […]
In situ inhibitor treatments of human cell lines were performed as described previously (Hsu et al., J Med Chem 56, 8270-8279, 2012). Briefly, PC3 or transfected HEK293T cells were grown to confluency in serum-containing media (RPMI or DMEM, respectively). The culture media was then removed and replaced with fresh media containing DMSO or inhibitor at the desired concentration and incubated for 4 hours in a tissue culture incubator (37° C., 5% CO2). Cells were then washed with PBS, harvested, washed with PBS once more, and lysed with a probe sonicator.
This possibility was explored by treating HEK293T cells transfected with human PPT1 (hPPT1) with Compound 37 (5 μM, 4 h pre-treatment) or DMSO followed by cell lysis and treatment with Compound 39 (5 μM, 1 h). A strong, but diffuse Compound 37-sensitive, Compound 39-labeled protein band was detected by gel-based ABPP in hPPT1-transfected, but not mock-transfected cell lysates (see FIG. 14), and this diffuse signal was compressed to a tight, faster-migrating band matching the predicted molecular weight of PPT1 following treatment with the glycosidase PNGaseF (see FIG. 14). Western blotting with an anti-PPT1 antibody confirmed a similar migration pattern for hPPT1 protein in transfected cell lysates (see FIG. 14, bottom panel).
A structurally diverse panel of N-hydroxy bicyclic hydantoin carbamates were assayed at 2 or 0.2 μM for in situ inhibition of hPPT1 in transfected HEK293T cells.

The target in a further assay is T6, ABHD4 (Homo sapiens, UniProt Q8TB40).
T6 sequence (Q8TB40 1-342): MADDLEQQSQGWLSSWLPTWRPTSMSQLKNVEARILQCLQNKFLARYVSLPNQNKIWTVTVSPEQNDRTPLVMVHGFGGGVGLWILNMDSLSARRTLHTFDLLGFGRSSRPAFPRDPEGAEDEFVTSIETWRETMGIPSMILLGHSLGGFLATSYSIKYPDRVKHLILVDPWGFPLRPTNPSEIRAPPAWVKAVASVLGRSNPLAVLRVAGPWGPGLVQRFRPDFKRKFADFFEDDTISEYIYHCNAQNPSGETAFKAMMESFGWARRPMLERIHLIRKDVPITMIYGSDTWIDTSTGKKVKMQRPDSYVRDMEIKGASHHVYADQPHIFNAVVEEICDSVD
The assay can be described thus: Gel-based competitive ABPP, recombinant enzyme in transfected HEK293T cell lysates. It is filed as biochemical. Further details: myc-his; expressed in transfected cells; host or cells: HEK293T, transient transfection, pcDNA3.1/myc-his; lysate used in vitro. Particulars: recombinant, combined HEK293T lysates, gel-based ABPP. On the procedure:
as §7
Human ABHD3 and ABHD4 were recombinantly expressed by transient transfection in HEK293T cells, and the cell lysates were combined to provide a convenient assay for monitor inhibition of both enzymes by gel-based ABPP (see FIG. 8A). […]

T2 sequence (Q9WTL7 whole entry): as the sequence (O95372 whole entry) above, with A154N, S193T counted along it
T1 sequence (P97823 whole entry): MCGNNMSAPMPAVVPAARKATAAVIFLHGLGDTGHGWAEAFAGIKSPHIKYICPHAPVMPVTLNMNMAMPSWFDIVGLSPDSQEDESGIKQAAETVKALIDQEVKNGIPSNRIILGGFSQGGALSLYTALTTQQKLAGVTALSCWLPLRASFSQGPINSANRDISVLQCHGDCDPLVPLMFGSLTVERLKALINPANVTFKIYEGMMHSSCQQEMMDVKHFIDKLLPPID
T3 sequence (O75608 whole entry): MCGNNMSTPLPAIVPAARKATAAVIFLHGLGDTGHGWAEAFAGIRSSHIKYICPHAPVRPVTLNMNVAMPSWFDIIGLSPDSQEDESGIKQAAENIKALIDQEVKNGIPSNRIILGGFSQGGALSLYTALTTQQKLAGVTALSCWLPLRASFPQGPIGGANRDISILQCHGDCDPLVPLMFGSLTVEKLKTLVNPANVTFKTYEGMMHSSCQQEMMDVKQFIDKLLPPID

`O=C(ON1C(=O)C2CN(C(=O)c3ccc(Br)cc3)CCN2C1=O)N1CCC(CCc2ccc(Cl)cc2)CC1` (stereo not shown) [Compound 7, 7-(4-bromobenzoyl)-1,3-dioxohexahydroimidazo[1,5-a]pyrazin-2(3H)-yl 4-(4-chlorophenethyl)piperidine-1-carboxylate]: on LYPLA1, the inhibition at 0.1 µM turned out to be 0%, the inhibition at 1 µM came to 80%, the inhibition at 10 µM is 95% and the inhibition at 100 µM turned out to be 100%. At LYPLA2, the inhibition at 0.1 µM is 0%, the inhibition at 1 µM is 80%, the inhibition at 10 µM was 95% and the inhibition at 100 µM was determined as 100%. In assay [1], the “Anti-target(s) 0.1 μM” value is reported as “ABHD6”, the “Anti-target(s) 1 μM” value is “ABHD6”, the “Anti-target(s) 10 μM” value was “FAAH,; also recorded: ABHD12,; also recorded: ABHD6” and the “Anti-target(s) 100 μM” value is listed as “FAAH,; also recorded: ABHD12,; also recorded: ABHD4,; also recorded: MAGL,; also recorded: ABHD6”. For the same molecule, the IC50 on human LYPLA1 is 306 nM. Besides, on human LYPLA2, the IC50 worked out at 726 nM.
Take `COc1ccc(N2CCN(C(=O)ON3C(=O)C4CN(CC5CCN(C(=O)OC(C)(C)C)CC5)CCN4C3=O)CC2)cc1` (stereo not shown) [Compound 24, 7-((1-(tert-butoxycarbonyl)piperidin-4-yl)methyl)-1,3-dioxohexahydroimidazo[1,5-a]pyrazin-2(3H)-yl 4-(4-methoxyphenyl)piperazine-1-carboxylate]: the “hPPT1 (in situ), % @ 2 μM” value on PPT1 is recorded as 100% @ 2 μM.
Turning to `O=C(ON1C(=O)C2CN(Cc3ccc(Br)cc3)CCN2C1=O)N1CCC(CCc2ccc(Cl)cc2)CC1` (stereo not shown) [Compound 13, 7-(4-bromobenzyl)-1,3-dioxohexahydroimidazo[1,5-a]pyrazin-2(3H)-yl 4-(4-chlorophenethyl)piperidine-1-carboxylate], at LYPLA1, the inhibition at 0.1 µM was found to be 0%, the inhibition at 1 µM came out at 10%, the inhibition at 10 µM worked out at 75% and the inhibition at 100 µM worked out at 90%. For the same molecule, at LYPLA2, the inhibition at 0.1 µM stood at 0%, the inhibition at 1 µM turned out to be 10%, the inhibition at 10 µM was determined as 75% and the inhibition at 100 µM worked out at 90%. Besides, in assay [1], the “Anti-target(s) 0.1 μM” value is recorded as “ABHD6”, the “Anti-target(s) 1 μM” value is on record as “FAAH,; also recorded: ABHD4,; also recorded: ABHD6”, the “Anti-target(s) 10 μM” value was “FAAH,; also recorded: ABHD4,; also recorded: ABHD6” and the “Anti-target(s) 100 μM” value is on record as “FAAH,; also recorded: ABHD4,; also recorded: MAGL,; also recorded: ABHD6”. For the same molecule, the “preference ABHD4 over ABHD3” value on ABHD4 is “preferentially inhibited ABHD4 over ABHD3”.

Source of the values: patent US9981972B2, “N-hydroxy bicyclic hydantoin carbamates as tools for identification of serine hydrolase targets” (ABIDE THERAPEUTICS, INC., priority 2014, dated 2018).
